# Test results taken from patent US20090075937A1, “LHRH ANTAGONISTS FOR THE TREATMENT OF LOWER URINARY TRACT SYMPTOMS” (AETERNA ZENTARIS GmbH, priority 2007, published 2009).
# Non-standard residues stand in square brackets, D forms with d. Residues, ends and D or L forms follow the SMILES beside them. dPhe(4-Cl) = N[C@H](Cc1ccc(Cl)cc1)C(=O)O; d2Nal = N[C@H](Cc1ccc2ccccc2c1)C(=O)O; dCit = NC(=O)NCCC[C@@H](N)C(=O)O; d3Pal = N[C@H](Cc1cccnc1)C(=O)O
# What was measured:
# study subjects [1] = assay: Nocturia: how often the study subjects got up during the night in order to urinate; format: in vivo, human; details: for decrease in nocturia frequency compared to placebo: largest difference, n-times mean
# Excerpt: (§1) The results shown are percentage variations from baseline at the beginning of the study (week 0).
# The results shown are mean values, how often the study subjects had to get up.
# study subjects [2] = assay: Frequency of emptying: how often the study subjects had to urinate a second time within a 2 hour test period; format: in vivo, human; details: for decrease in frequency of emptying compared to placebo: largest difference, n-times mean
# Excerpt: as §1
# The results shown are mean values, how often the study subjects had to urinate a second time.
# study subjects [3] = assay: IPSS irritative subscore (sum of nocturia, frequency of emptying and urgency to urinate); format: in vivo, human; details: for IPSS irritative subscore (nocturia, frequency of emptying, urgency to urinate): percentage variation from baseline
# Excerpt: as §1
# [4] = test system: testosterone blood levels; assay: Median testosterone blood levels / chemical (hormonal) castration; details: for Testosterone [ng/mL] (median): blood level
# Experimental: Preferably, chemical (hormonal) castration is a testosterone castration and refers to a testosterone blood level of equal or below 1.2 ng/mL, preferably 0.5 ng/mL.
# Study subjects were treated with Cetrorelix pamoate with the following doses according to the following administration schemes: • 60 mg Cetrorelix pamaote administered at week 0 and 30 mg Cetrorelix pamaote administered at week 2 (treatment period) followed by up to 5 months of no treatment (treatment-free period) • 60 mg Cetrorelix pamaote administered at week 0 and 60 mg Cetrorelix pamaote administered at week 2 (treatment period) followed by up to 5 months of no treatment (treatment-free period)
# Study subjects were treated with Cetrorelix acetate with the following doses according to the following administration schemes: • 5 mg Cetrorelix acetate administered at week 0, 1, 2 and 3 (total monthly dose of 20 mg) (treatment period) followed by up to 4 months of no treatment (treatment-free period) • 10 mg Cetrorelix acetate administered at week 0 and 10 mg Cetrorelix acetate administered at week 2 (treatment period) followed by up to 4 months of no treatment (treatment-free period) • 10 mg Cetrorelix acetate administered at week 0, 1, 2 and 3 (total monthly dose of 40 mg) (treatment period) followed by up to 4 months of no treatment (treatment-free period)
# Study subjects were treated with Ozarelix with the following doses according to the following administration schemes: • 15 mg Ozarelix administered at week 0 and 15 mg Ozarelix administered at week 2 (treatment period) followed by up to 4 months of no treatment (treatment-free period)
# study subjects [5] = assay: Urgency to urinate: how often the study subjects had difficulties to delay the urination; format: in vivo, human; details: for Urgency to urinate (n-times, mean): 15 + 15: 15 mg at week 0 and week 2
# Excerpt: The results shown are mean values, how often the study subjects had difficulties.
# [6] = 2 × 10: 10 mg at week 0 and week 2, Week 0
# [7] = 2 × 10: 10 mg at week 0 and week 2, Week 4
# [8] = 2 × 10: 10 mg at week 0 and week 2, Week 8
# [9] = 2 × 10: 10 mg at week 0 and week 2, Week 12
# [10] = 2 × 10: 10 mg at week 0 and week 2, Week 16
# [11] = 2 × 10: 10 mg at week 0 and week 2, Week 20
# [12] = 4 × 5: 5 mg at week 0, 1, 2 and 3, Week 0
# [13] = 4 × 5: 5 mg at week 0, 1, 2 and 3, Week 4
# [14] = 4 × 5: 5 mg at week 0, 1, 2 and 3, Week 8
# [15] = 4 × 5: 5 mg at week 0, 1, 2 and 3, Week 12
# [16] = 4 × 5: 5 mg at week 0, 1, 2 and 3, Week 16
# [17] = 4 × 5: 5 mg at week 0, 1, 2 and 3, Week 20
# [18] = 4 × 10: 10 mg at week 0, 1, 2 and 3, Week 0
# [19] = 4 × 10: 10 mg at week 0, 1, 2 and 3, Week 4
# [20] = 4 × 10: 10 mg at week 0, 1, 2 and 3, Week 8
# [21] = 4 × 10: 10 mg at week 0, 1, 2 and 3, Week 12
# [22] = 4 × 10: 10 mg at week 0, 1, 2 and 3, Week 16
# [23] = 4 × 10: 10 mg at week 0, 1, 2 and 3, Week 20
# [24] = 5+5+5+5 mg, 10+10 mg and 10+10+10+10 mg schemes
# [25] = 15 + 15: 15 mg at week 0 and week 2, Week 0
# [26] = 15 + 15: 15 mg at week 0 and week 2, Week 4
# [27] = 15 + 15: 15 mg at week 0 and week 2, Week 8
# [28] = 15 + 15: 15 mg at week 0 and week 2, Week 12
# [29] = 15 + 15: 15 mg at week 0 and week 2, Week 16
# [30] = 15 + 15: 15 mg at week 0 and week 2, Week 20
# [31] = 15 + 15: 15 mg at week 0 and week 2, Week 24
molecule,measurement,setting,value
CC(=O)N[C@H](Cc1ccc2ccccc2c1)C(=O)N[C@H](Cc1ccc(Cl)cc1)C(=O)N[C@H](Cc1cccnc1)C(=O)N[C@@H](CO)C(=O)N[C@@H](Cc1ccc(O)cc1)C(=O)N[C@H](CCCNC(N)=O)C(=O)N[C@@H](CC(C)C)C(=O)N[C@@H](CCCNC(=N)N)C(=O)N1CCC[C@H]1C(=O)N[C@H](C)C(N)=O [Cetrorelix acetate] (Ac-[d2Nal][dPhe(4-Cl)][d3Pal]SY[dCit]LRP[dA]-NH2),"Nocturia (n-times, mean)",study subjects [1]; [6],2.69 n-times
same,"Nocturia (n-times, mean)",study subjects [1]; [7],2.00 n-times
same,"Nocturia (n-times, mean)",study subjects [1]; [8],2.06 n-times
same,"Nocturia (n-times, mean)",study subjects [1]; [9],1.97 n-times
same,"Nocturia (n-times, mean)",study subjects [1]; [10],1.97 n-times
same,"Nocturia (n-times, mean)",study subjects [1]; [11],2.16 n-times
same,"Nocturia (n-times, mean)",study subjects [1]; [12],2.57 n-times
same,"Nocturia (n-times, mean)",study subjects [1]; [13],2.09 n-times
same,"Nocturia (n-times, mean)",study subjects [1]; [14],1.94 n-times
same,"Nocturia (n-times, mean)",study subjects [1]; [15],1.85 n-times
same,"Nocturia (n-times, mean)",study subjects [1]; [16],1.79 n-times
same,"Nocturia (n-times, mean)",study subjects [1]; [17],1.85 n-times
same,"Nocturia (n-times, mean)",study subjects [1]; [18],2.63 n-times
same,"Nocturia (n-times, mean)",study subjects [1]; [19],1.79 n-times
same,"Nocturia (n-times, mean)",study subjects [1]; [20],1.78 n-times
same,"Nocturia (n-times, mean)",study subjects [1]; [21],1.75 n-times
same,"Nocturia (n-times, mean)",study subjects [1]; [22],1.87 n-times
same,"Nocturia (n-times, mean)",study subjects [1]; [23],2.16 n-times
same,decrease in nocturia frequency compared to placebo,study subjects [1]; [24],up to 0.71
same,"Frequency of emptying (n-times, mean)",study subjects [2]; [6],2.29 n-times
same,"Frequency of emptying (n-times, mean)",study subjects [2]; [7],1.86 n-times
same,"Frequency of emptying (n-times, mean)",study subjects [2]; [8],1.58 n-times
same,"Frequency of emptying (n-times, mean)",study subjects [2]; [9],1.55 n-times
same,"Frequency of emptying (n-times, mean)",study subjects [2]; [10],1.45 n-times
same,"Frequency of emptying (n-times, mean)",study subjects [2]; [11],1.66 n-times
same,"Frequency of emptying (n-times, mean)",study subjects [2]; [12],2.49 n-times
same,"Frequency of emptying (n-times, mean)",study subjects [2]; [13],2.23 n-times
same,"Frequency of emptying (n-times, mean)",study subjects [2]; [14],2.00 n-times
same,"Frequency of emptying (n-times, mean)",study subjects [2]; [15],1.73 n-times
same,"Frequency of emptying (n-times, mean)",study subjects [2]; [16],1.52 n-times
same,"Frequency of emptying (n-times, mean)",study subjects [2]; [17],1.79 n-times
same,"Frequency of emptying (n-times, mean)",study subjects [2]; [18],2.86 n-times
same,"Frequency of emptying (n-times, mean)",study subjects [2]; [19],1.62 n-times
same,"Frequency of emptying (n-times, mean)",study subjects [2]; [20],1.66 n-times
same,"Frequency of emptying (n-times, mean)",study subjects [2]; [21],1.81 n-times
same,"Frequency of emptying (n-times, mean)",study subjects [2]; [22],1.65 n-times
same,"Frequency of emptying (n-times, mean)",study subjects [2]; [23],1.78 n-times
same,decrease in frequency of emptying compared to placebo,study subjects [2]; [24],up to 1.35
same,further decrease in IPSS irritative subscore compared to placebo,"study subjects [3]; 5+5+5+5 mg, 10+10 mg and 10+10+10+10 mg schemes, largest difference",up to 43%
same,"IPSS irritative subscore (nocturia, frequency of emptying, urgency to urinate)",study subjects [3]; [6],0%
same,"IPSS irritative subscore (nocturia, frequency of emptying, urgency to urinate)",study subjects [3]; [7],−25%
same,"IPSS irritative subscore (nocturia, frequency of emptying, urgency to urinate)",study subjects [3]; [8],−33.3%
same,"IPSS irritative subscore (nocturia, frequency of emptying, urgency to urinate)",study subjects [3]; [9],−33.3%
same,"IPSS irritative subscore (nocturia, frequency of emptying, urgency to urinate)",study subjects [3]; [10],−42.9%
same,"IPSS irritative subscore (nocturia, frequency of emptying, urgency to urinate)",study subjects [3]; [11],−29.2%
same,"IPSS irritative subscore (nocturia, frequency of emptying, urgency to urinate)",study subjects [3]; [12],0%
same,"IPSS irritative subscore (nocturia, frequency of emptying, urgency to urinate)",study subjects [3]; [13],−16.7%
same,"IPSS irritative subscore (nocturia, frequency of emptying, urgency to urinate)",study subjects [3]; [14],−25%
same,"IPSS irritative subscore (nocturia, frequency of emptying, urgency to urinate)",study subjects [3]; [15],−28.6%
same,"IPSS irritative subscore (nocturia, frequency of emptying, urgency to urinate)",study subjects [3]; [16],−30.8%
same,"IPSS irritative subscore (nocturia, frequency of emptying, urgency to urinate)",study subjects [3]; [17],−29.7%
same,"IPSS irritative subscore (nocturia, frequency of emptying, urgency to urinate)",study subjects [3]; [18],0%
same,"IPSS irritative subscore (nocturia, frequency of emptying, urgency to urinate)",study subjects [3]; [19],−29.3%
same,"IPSS irritative subscore (nocturia, frequency of emptying, urgency to urinate)",study subjects [3]; [20],−31%
same,"IPSS irritative subscore (nocturia, frequency of emptying, urgency to urinate)",study subjects [3]; [21],−25%
same,"IPSS irritative subscore (nocturia, frequency of emptying, urgency to urinate)",study subjects [3]; [22],−28.6%
same,"IPSS irritative subscore (nocturia, frequency of emptying, urgency to urinate)",study subjects [3]; [23],−25%
same,chemical (hormonal) castration,"[4]; 5+5+5+5 mg, 10+10 mg and 10+10+10+10 mg schemes, conclusion from median testosterone blood levels",successfully prevented
same,Testosterone [ng/mL] (median),[4]; [6],3.27 ng/mL
same,Testosterone [ng/mL] (median),[4]; [7],4.41 ng/mL
same,Testosterone [ng/mL] (median),[4]; [8],3.73 ng/mL
same,Testosterone [ng/mL] (median),[4]; [9],4.45 ng/mL
same,Testosterone [ng/mL] (median),[4]; [10],4.16 ng/mL
same,Testosterone [ng/mL] (median),[4]; [11],4.12 ng/mL
same,Testosterone [ng/mL] (median),[4]; [12],3.42 ng/mL
same,Testosterone [ng/mL] (median),[4]; [13],2.95 ng/mL
same,Testosterone [ng/mL] (median),[4]; [14],3.77 ng/mL
same,Testosterone [ng/mL] (median),[4]; [15],4.11 ng/mL
same,Testosterone [ng/mL] (median),[4]; [16],3.91 ng/mL
same,Testosterone [ng/mL] (median),[4]; [17],3.49 ng/mL
same,Testosterone [ng/mL] (median),[4]; [18],3.41 ng/mL
same,Testosterone [ng/mL] (median),[4]; [19],2.17 ng/mL
same,Testosterone [ng/mL] (median),[4]; [20],3.82 ng/mL
same,Testosterone [ng/mL] (median),[4]; [21],4.32 ng/mL
same,Testosterone [ng/mL] (median),[4]; [22],4.32 ng/mL
same,Testosterone [ng/mL] (median),[4]; [23],4.06 ng/mL
Ozarelix,decrease in nocturia frequency compared to placebo,study subjects [1]; 15+15 mg scheme,up to 0.76
same,"Nocturia (n-times, mean)",study subjects [1]; [25],2.73 n-times
same,"Nocturia (n-times, mean)",study subjects [1]; [26],1.83 n-times
same,"Nocturia (n-times, mean)",study subjects [1]; [27],1.43 n-times
same,"Nocturia (n-times, mean)",study subjects [1]; [28],1.54 n-times
same,"Nocturia (n-times, mean)",study subjects [1]; [29],1.54 n-times
same,"Nocturia (n-times, mean)",study subjects [1]; [30],1.50 n-times
same,"Nocturia (n-times, mean)",study subjects [1]; [31],1.54 n-times
same,decrease in frequency of emptying compared to placebo,study subjects [2]; 15+15 mg scheme,up to 0.30
same,"Frequency of emptying (n-times, mean)",study subjects [2]; [26],2.48 n-times
same,"Frequency of emptying (n-times, mean)",study subjects [2]; [27],2.11 n-times
same,"Frequency of emptying (n-times, mean)",study subjects [2]; [28],1.82 n-times
same,"Frequency of emptying (n-times, mean)",study subjects [2]; [29],1.75 n-times
same,"Frequency of emptying (n-times, mean)",study subjects [2]; [30],1.71 n-times
same,"Frequency of emptying (n-times, mean)",study subjects [2]; [31],1.75 n-times
same,decrease in urgency to urinate compared to placebo,"study subjects [5]; 15+15 mg scheme, largest difference, n-times mean",up to 0.74
same,"Urgency to urinate (n-times, mean)",study subjects [5]; Week 0,2.80 n-times
same,"Urgency to urinate (n-times, mean)",study subjects [5]; Week 4,2.17 n-times
same,"Urgency to urinate (n-times, mean)",study subjects [5]; Week 8,1.89 n-times
same,"Urgency to urinate (n-times, mean)",study subjects [5]; Week 12,1.75 n-times
same,"Urgency to urinate (n-times, mean)",study subjects [5]; Week 16,1.39 n-times
same,"Urgency to urinate (n-times, mean)",study subjects [5]; Week 20,1.71 n-times
same,"Urgency to urinate (n-times, mean)",study subjects [5]; Week 24,1.89 n-times
same,Testosterone [ng/mL] (median),[4]; [25],3.57 ng/mL
same,Testosterone [ng/mL] (median),[4]; [26],2.97 ng/mL
same,Testosterone [ng/mL] (median),[4]; [27],4.19 ng/mL
same,Testosterone [ng/mL] (median),[4]; [28],4.11 ng/mL
same,Testosterone [ng/mL] (median),[4]; [29],3.82 ng/mL
same,Testosterone [ng/mL] (median),[4]; [30],3.92 ng/mL
same,Testosterone [ng/mL] (median),[4]; [31],3.86 ng/mL
